This test concerns 128128-338-R-J1-PDC spheroids, viability % test/control. The test can be described thus: Anticancer human tumor 128128-338-R-J1-PDC patient-derived melanoma cell line growth inhibition [TAK]. The note with it: spheroids with HUVEC and MSC; for viability, T/C: stronger effect = lower value. From the text: Combinatorial screen of targeted agents with TAK-243 and ipatasertib in multi-cell type tumor spheroids
A high-throughput screen of multi-cell type tumor spheroids was designed to identify active combinations of targeted small molecules and TAK-243 or ipatasertib. Complex spheroids include a stromal component modeled by human endothelial cells (HUVEC) and fibroblasts modeled by human mesenchymal stem cells (MSCs). The concentration ranges selected for each drug and investigational agent were based upon clinically achievable concentrations if the clinical Cmax of the agent was known.
Compounds. The drugs and investigational agents: TAK-243 (785004), ipatasertib (767898), everolimus (733504), selumetinib (741078), bortezomib (756655), trametinib (758246), ixazomib (758254), vemurafenib (761431), dabrafenib (764134), sapanisertib (764658), alpelisib (765974), and copanlisib (816437), were obtained from the National Cancer Institute (NCI) Developmental Therapeutics Program Chemical Repository. The FDA-approved anticancer drug set is available from the NCI Developmental Therapeutics Program. […] The stock solutions were prepared in dimethyl sulfoxide (DMSO, Sigma-Aldrich, St. Louis, MO, cat. D2650) at 800-fold the tested concentration and stored at -70 degrees C prior to their use. All drugs and investigational agents were tested over a range starting from a high concentration at or near the clinical Cmax and decreasing in half-log increments. If the clinical Cmax for an agent had not been determined, the highest concentration tested was 10 microM.
NCI60 Cell Culture. NCI60 cell lines were obtained from the NCI Developmental Therapeutics Program Tumor Repository. For each lot of cells, the Repository performed Applied Biosystems AmpFLSTR Identifiler testing with PCR amplification to confirm consistency with the published Identifier STR profile for each cell line. Cells were kept in continuous culture for no more than 20 passages. The optimal seeding densities for each of the cell lines at each time point assessed were determined prior to performing the concentration response studies. Briefly, the NCI60 human tumor lines were grown as monolayers in RPMI 1640 medium supplemented with 10% FBS and 2 mmol/L L-glutamine.
An additional 2 lines were from the NCI60 cell line panel including melanomas, MALME-3M and SK-MEL-2. Pooled donor human umbilical vein endothelial cells (HUVEC, Lonza, cat. CC-2519) and human mesenchymal stem cells (hMSC, Lonza, cat. PT-2501) were purchased from Lonza (Walkersville, MD).
PDMR cell lines were grown in complete medium (DC medium): Dulbecco's modified Eagle's medium (DMEM)/F12 supplemented with 5% fetal bovine serum (FBS), 2 mM L-glutamine, 100 U/mL penicillin and 100 µg/ml streptomycin, 0.4 µg/ml hydrocortisone, 10 ng/ml epidermal growth factor (EGF) recombinant human protein, 24 µg/mL adenine, and 0.1 mg/mL primocin. During culture from frozen stock vials, PDMR cells were cultured in the same medium containing 10 µM Y-27632 (see Table 3). The PDCs were cultured in complete DMEM/F12 media without 10 microM Y-27632 dihydrochloride for at least two passages prior to the screen. The pooled donor HUVEC and hMSC were cultured in endothelial cell growth medium 2 (PromoCell, Heidelberg, Germany, cat. C-22011) and mesenchymal stem cell growth medium 2 (PromoCell, cat. C-28009), respectively. For all experiments, HUVEC and hMSC were used at passages </=5.
For the pre-screen, cell seeding densities were determined from a titration spanning the range from 5,000 to 313 cells per well. The mct-spheroids including 60% malignant cells, 25% HUVEC and 15% MSC dispensed as a mixture into U-bottom Ultra-Low Attachment 384-well plates (Corning, NY)
High-throughput Drug Combination Screening.
Prior to their inoculation into 384-well plates, malignant cells, HUVEC, and hMSC were removed from T flasks using TrypLE express (Thermo Fisher Scientific, cat. 12605036) and harvested by centrifugation for 5 min at 233 x g. […]

Three compounds from PubChem BioAssay AID2060362 (Molecular Pharmacology Branch, DTP, NCI, 2025) can be followed below.

Values joined by “and” are separate entries in the source; they are usually repeats but may differ in a detail not shown here. Identical values can stand only once.

Usually viability, T/C stands for the ratio of treated to control. As usually defined, the IC50 is the concentration needed to halve the response being measured.
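Note: spheroids exposed to compounds for 7 days.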
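Throughout, for viability, T/C: 100% = DMSO vehicle wells.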

Consider `CC(C)(C)c1nc(-c2cccc(NS(=O)(=O)c3c(F)cccc3F)c2F)c(-c2ccnc(N)n2)s1`, for which the viability, T/C runs as follows: (compound 0.0316 µM) 61.1% and 60.1%; (compound 0.1 µM) 23.9% and 24%; (compound 0.316 µM) 4.21% and 5.44%; (compound 1 µM) 2.39% and 2.26%; (compound 3.16 µM) 2.82% and 2.69%; (compound 10 µM) 17.2% and 16.2%. Where the note is “curve of compound”, the IC50 was 44.7 nM and 43.6 nM.

With `COc1c(OCCCN2CCOCC2)ccc2c3n(c(=NC(=O)c4cnc(N)nc4)nc12)CCN3`, the viability, T/C reads like this: (compound 0.00316 µM) 109% and 105%; (compound 0.01 µM) 99.4% and 96.6%; (compound 0.0316 µM) 99.3% and 84.1%; (compound 0.1 µM) 75.9% and 72%; (compound 0.316 µM) 21.6% and 15.2%; (compound 1 µM) 8.68% and 5.59%. Besides, under “curve of compound”, the IC50 was 173 nM and 153 nM.

Consider `CC(C)n1nc(-c2ccc3oc(N)nc3c2)c2c(N)ncnc21` + CC(C)NCC(C(=O)N1CCN(c2ncnc3c2C(C)CC3O)CC1)c1ccc(Cl)cc1, for which the IC50 is 15.4 nM (curve of first compound, second compound 0.3 µM); 14.1 nM (curve of first compound, second compound 0.949 µM); 7.82 nM (curve of first compound, second compound 3 µM); 1.81 nM (curve of first compound, second compound 9.49 µM); less than 0.316 nM (curve of first compound, second compound 30 µM). Also, the viability, T/C reads like this: (second compound 0.3 µM, first compound 0.000316 µM) 96%; (second compound 0.3 µM, first compound 0.001 µM) 96.5%; (second compound 0.3 µM, first compound 0.00316 µM) 89.6%; (second compound 0.3 µM, first compound 0.01 µM) 59.2%; (second compound 0.3 µM, first compound 0.0316 µM) 31.3%; (second compound 0.3 µM, first compound 0.1 µM) 6.8%. Further, the viability, T/C by setting is: (second compound 0.949 µM, first compound 0.000316 µM) 88.9%; (second compound 0.949 µM, first compound 0.001 µM) 95.8%; (second compound 0.949 µM, first compound 0.00316 µM) 80.1%; (second compound 0.949 µM, first compound 0.01 µM) 58.4%; (second compound 0.949 µM, first compound 0.0316 µM) 29%; (second compound 0.949 µM, first compound 0.1 µM) 4.5%. The viability, T/C reads like this: (second compound 3 µM, first compound 0.000316 µM) 88.5%; (second compound 3 µM, first compound 0.001 µM) 77.5%; (second compound 3 µM, first compound 0.00316 µM) 68.5%; (second compound 3 µM, first compound 0.01 µM) 47%; (second compound 3 µM, first compound 0.0316 µM) 18%; (second compound 3 µM, first compound 0.1 µM) 4.85%. For the same compound, the viability, T/C runs as follows: (second compound 9.49 µM, first compound 0.000316 µM) 66.6%; (second compound 9.49 µM, first compound 0.001 µM) 57.3%; (second compound 9.49 µM, first compound 0.00316 µM) 43%; (second compound 9.49 µM, first compound 0.01 µM) 17.2%; (second compound 9.49 µM, first compound 0.0316 µM) 5.97%; (second compound 9.49 µM, first compound 0.1 µM) 0.5%. The viability, T/C is, setting by setting: (second compound 30 µM, first compound 0.000316 µM) 16.4%; (second compound 30 µM, first compound 0.001 µM) 18.2%; (second compound 30 µM, first compound 0.00316 µM) 11.7%; (second compound 30 µM, first compound 0.01 µM) 2.86%; (second compound 30 µM, first compound 0.0316 µM) 0.38%; (second compound 30 µM, first compound 0.1 µM) 0.2%.
